Source: US7982021B2, “Nucleic acid molecules encoding emission ratiometric indicators of phosphoinositides” (The Johns Hopkins University, priority 2006, dated 2011)

Test system: PIP3 and PI(3,4)P2
Experiment: FRET emission ratio imaging of InPAkt reporters in NIH3T3 cells upon growth factor stimulation
Type: cell-based
Conditions: for t1/2 of InPAkt response produced by the growth factor / time to reach plateau of InPAkt response produced by the growth factor / InPAkt emission ratio increase produced by the growth factor: NIH3T3 cells expressing InPAkt; for t1/2 of InPAkt response produced by the growth factor / time to reach plateau of InPAkt response produced by the growth factor: single ligand; for InPAkt emission ratio increase produced by the growth factor: single ligand: 50 ng/ml PDGF, 50 nM IGF-1 or 100 ng/ml insulin; for InPAkt emission ratio increase, sequential stimulation: agonists applied sequentially: insulin; for InPAkt emission ratio increase, sequential stimulation / t1/2 of InPAkt response, sequential stimulation / time of InPAkt emission ratio increase, sequential stimulation: then IGF-1, then PDGF; for t1/2 of InPAkt response, sequential stimulation / time of InPAkt emission ratio increase, sequential stimulation: insulin
Experimental: Cell Culture. HEK293 and NIH3T3 cells were plated onto sterilized glass coverslips in 35-mm dishes and grown to 50-90% confluency in DMEM (10% FBS) at 37° C. with 5% CO2. Cells were transfected with FUGENE®-6 (Roche), then serum starved for 24-36 h before imaging. Colocalization studies were performed by incubating transfected cells with Hoechst 33342 cell-permeable dyes (Molecular Probes) for staining nucleic acids.
Imaging. Cells were washed twice with Hanks' balanced salt solution buffer and maintained in the dark at room temperature with the addition of 50 ng/ml rat PDGF (Sigma), 100 ng/ml bovine insulin (Calbiochem), 50 nM IGF-1 (Sigma), or 20 μM LY294002 (Sigma) as described. Cells were imaged on a Zeiss Axiovert 200M microscope with a cooled CCD camera MicroMAX BFT512 (Roper Scientific, Trenton, N.J.) controlled by METAFLUOR 6.2 software (Universal Imaging, Downingtown, Pa.). Dual emission ratio imaging used a 420DF20 excitation filter, a 450DRLP dichroic mirror, and two emission filters (475DF40 for CFP and 535DF25 for YFP) alternated by a filter-changer Lambda 10-2 (Sutter Instruments, Novato, Calif.). Exposure time was 50-500 ms, and images were taken every 15-30 s. Fluorescence images were background-corrected by subtracting autofluorescence intensity of untransfected cells (or background with no cells) from the emission intensities of cells expressing fluorescent reporters. The ratios of yellow-to-cyan emissions were then calculated at different time points.
We next checked the ability of this chimera to detect changes in 3′ PIs in response to agonist stimulation. NIH3T3 cells expressing this construct were serum-starved then stimulated with 50 ng/ml platelet-derived growth factor (PDGF). Stimulation of endogenous PDGF receptor (PDGFR) generated a FRET increase, resulting in an increase in the ratio of yellow-to-cyan emissions (FIGS. 1D, 1E), which was detectable within several seconds and reached a plateau of 25.4±3.7% [average±std] […] The FRET change occurred in the plasma membrane and was accompanied by the translocation of the reporter (FIG. 1D), reiterating that 3′ PIs are mainly produced at the plasma membrane (22). To verify that the FRET response is caused by binding of PIP3 and PI(3,4)P2, we generated a variant of the reporter in which two critical residues in the PH domain, Arg23 and Arg25, which mainly contribute to D-3 phosphate recognition (20), are mutated.

[1] = NIH3T3 cells, PDGF first, followed by IGF-1

Substance: IGF-1: insulin-like growth factor 1 (Sigma)
- t1/2 of InPAkt response produced by the growth factor: 5.4 ± 0.4 min
- time to reach plateau of InPAkt response produced by the growth factor: 10 to 12 min
- InPAkt emission ratio increase produced by the growth factor: 6.5±0.8%
- InPAkt emission ratio response, reversed order of ligand addition [1]: not enhanced
- InPAkt emission ratio increase, sequential stimulation (NIH3T3 cells): 6.8±0.9%
- t1/2 of InPAkt response, sequential stimulation (NIH3T3 cells): 5.2 ± 0.1 min
- time of InPAkt emission ratio increase, sequential stimulation (NIH3T3 cells): 10 to 12 min

Substance: insulin: bovine insulin (Calbiochem)
- InPAkt emission ratio increase produced by the growth factor: did not generate any discernable response
- InPAkt emission ratio increase, sequential stimulation (NIH3T3 cells): did not generate any appreciable change

Substance: PDGF
- t1/2 of InPAkt response produced by the growth factor: 3.45 ± 0.65 min
- time to reach plateau of InPAkt response produced by the growth factor: 5 to 9 min
- InPAkt emission ratio increase produced by the growth factor: 25.4±3.7%
- InPAkt emission ratio response, reversed order of ligand addition [1]: 24.2 ± 1.5%
- t1/2 of InPAkt response, reversed order of ligand addition [1]: 3.9 ± 0.2 min
- time of InPAkt response, reversed order of ligand addition [1]: 7 to 9 min
- InPAkt emission ratio increase, sequential stimulation (NIH3T3 cells): 14.6±1.4%
- t1/2 of InPAkt response, sequential stimulation (NIH3T3 cells): 3.2 ± 0.2 min
- time of InPAkt emission ratio increase, sequential stimulation (NIH3T3 cells): 6 to 7 min
